No end group written: not given here.

In test [1] the target is T1, moesin FERM domain (Homo sapiens, UniProt P26038).
T1 construct: pGEX4T Moesin (P26038) FERM was a gift from Vijaya Ramesh (Addgene plasmid # 1163); GST (N, cleaved yes); made in house; host or cells: E. coli BL21(DE3)
Description: Direct binding fluorescence polarization (FP) assay, FITC-labeled probe peptides. Particulars: FITC-labeled probe peptide 5 nM titrated with FERM domain, 20 mM HEPES pH 7.4, 150 mM NaCl, 0.05% Tween-20, 3 mM DTT, quadratic 1:1 fit, n = 3 technical repeats. How it is done:
(§1) For fluorescence polarization (FP) experiments of merlin FERM, the GST tag was removed using HRV3C protease by incubating the enzyme (100 units/10 mg protein) with protein overnight at 4 °C in the dialysis buffer (20 mM HEPES, pH 7.4, 150 mM NaCl, 0.05% Tween-20, and 3 mM DTT). The following day, the cleaved GST and the protease were removed using reverse Ni-IMAC, and the protein was concentrated to the working concentration. For FP experiments using moesin FERM, thrombin (Sigma) was used to cleave the GST tag from moesin FERM domain on GSH sepharose beads (Cytiva) and incubated overnight at 4 °C under gentle rotation. Next day, the beads were collected by gentle centrifugation, while the supernatant containing thrombin and moesin FERM domain was passed through a HiTrap benzamidine column (Cytiva). The protein was then eluted using a high salt (0.7–1 M NaCl) concentration. The buffer was then exchanged using the PD-10 desalting column (Cytiva) into FP buffer (20 mM HEPES, pH 7.4, 150 mM NaCl, 0.05% Tween-20, and 3 mM DTT).
(§2) Synthetic peptides were obtained at 95% purity (GeneCust) and were dissolved in FP buffer (described earlier). To obtain direct binding saturation data, a dilution series of moesin FERM domain was prepared using the FP buffer, and then an equal volume of 10 nM FITC-labeled peptide was added to each sample. After mixing, the FP signals were recorded using SpectraMax iD5 (Molecular Devices). Data were analyzed with GraphPad Prism version 7.0.0 for MacOS (GraphPad Software, San Diego, California USA). A quadratic equation for equilibrium binding[37] was used to fit the obtained data. [drawing 1] where pept indicates the probe peptide concentration (5 nM), X indicates the protein concentration, the constant A being the signal amplitude divided by probe peptide concentration, and B is the plateau value. Direct binding experiments were performed and analyzed the same way in the presence of saturating concentration of unlabeled peptides.
Background: Fluorescence polarisation rises when a labelled molecule tumbles more slowly, as on binding a larger partner.

The target of test [2] is T1, moesin FERM domain. In words: Direct binding FP in the presence of saturating concentration of unlabeled competing peptide. How it is done:
as §2
We next explored the interplay between the F3a and F3b ligands by determining the affinity of FITC-labeled model peptides in the presence of high concentrations of the competing ligands (Figure 6A,B). […] The asymmetric competition could potentially be explained by an allosteric model where binding to the F3a site induces a conformational change of the protein that reduces the affinity for F3b ligands.

Test [3] addresses T1, moesin FERM domain. In words: Competitive FP assay, unlabeled peptide outcompetes FITC-labeled probe. The class given is binding. On the procedure:
(§3) 25 μL of this premix was added to 25 μL of titrated target peptide. FP signals were determined as described earlier. […] All measurements were performed at least in triplicates.

For a further test, the target named is T2, moesin FERM M285A/H288A (Homo sapiens, UniProt P26038, H288A/M285A).
T2 construct: we generated a mutant moesin FERM domain (M285A and H288A); GST (N, cleaved yes); made in house; host or cells: E. coli BL21(DE3)
Description: Direct binding FP assay with F3b-site mutant. Particulars: direct binding of FITC-labeled probe; Table S7. From the text: Synthetic genes encoding for human merlin FERM (P35240; amino acids 22–312) and radixin FERM (P35241; 5–295) domains were commercially synthesized (ThermoFisher) and cloned into pETM33 using NcoI and EcoRI restriction sites. pGEX4T Moesin (P26038) FERM was a gift from Vijaya Ramesh (Addgene plasmid # 1163[27]). pGEX4T1 Ezrin (P15311) FERM domain was a kind gift from Volker Gerke.[28] Human NOP53-HA-pcDNA was a kind gift from Ronit Sarid.[29] The NOP53 gene was polymerase chain reaction (PCR)-amplified and cloned into CMV10 using HindIII and EcoRI. RRBP1-GFP was kindly provided by Alexander F. Palazzo.[30] HA-HIF1-alpha-pcDNA3 was a gift from William Kaelin (Addgene plasmid # 18949[31]). pcDNA3 LATS1 was a gift from Erich Nigg (Addgene plasmid # 41156[32]). […]
Synthetic peptides were obtained at 95% purity (GeneCust) and were dissolved in FP buffer (described earlier). […] After mixing, the FP signals were recorded using SpectraMax iD5 (Molecular Devices). Data were analyzed with GraphPad Prism version 7.0.0 for MacOS (GraphPad Software, San Diego, California USA). […] Direct binding experiments were performed and analyzed the same way in the presence of saturating concentration of unlabeled peptides.
To validate the models on the receptor side, we generated a mutant moesin FERM domain (M285A and H288A) and determined the effect on the affinity. […]

Another test addresses T3, radixin FERM domain (Homo sapiens, UniProt P35241).
T3 construct: radixin FERM (P35241; 5–295) domains were commercially synthesized; His-GST (N); made in house; host or cells: E. coli BL21(DE3)
In words: Competitive FP assay, unlabeled peptide outcompetes FITC-labeled probe. Format: binding. Particulars: competition FP, unlabeled peptide vs FITC-KIRREL3 probe; at least triplicates. On the procedure:
as §3

For another test, the target named is T4, merlin FERM domain (Homo sapiens, UniProt P35240).
T4 construct: human merlin FERM (P35240; amino acids 22–312); His-GST (N, cleaved yes); made in house; host or cells: E. coli BL21(DE3)
T4 sequence (P35240 22-312): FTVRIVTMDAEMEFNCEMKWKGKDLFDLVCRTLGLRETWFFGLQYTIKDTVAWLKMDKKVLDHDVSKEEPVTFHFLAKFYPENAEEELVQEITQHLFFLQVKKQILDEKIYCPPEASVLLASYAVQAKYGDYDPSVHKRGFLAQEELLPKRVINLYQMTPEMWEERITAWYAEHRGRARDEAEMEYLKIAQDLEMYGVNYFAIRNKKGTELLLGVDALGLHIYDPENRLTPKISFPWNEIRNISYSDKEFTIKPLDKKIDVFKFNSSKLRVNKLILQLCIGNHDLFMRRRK
In words: Direct binding fluorescence polarization (FP) assay, FITC-labeled probe peptides. Particulars: FITC-labeled probe peptide 5 nM titrated with FERM domain, 20 mM HEPES pH 7.4, 150 mM NaCl, 0.05% Tween-20, 3 mM DTT, quadratic 1:1 fit, n = 3 technical repeats, N.B. within the concentration range tested. On the procedure: as §1, §2

[4] abbreviates: direct binding FP in presence of excess unlabeled KIRREL3 (80 μM), Figure 6E, read-out: KD of FITC-labeled probe for moesin FERM, saturating peptide KIRREL3.
Where [5] appears, read: direct binding FP in presence of excess unlabeled TBX4 (80 μM), Figure 6F, read-out: KD of FITC-labeled probe for moesin FERM, saturating peptide TBX4.
Where [6] appears, read: moesin FERM, unlabeled peptide at about 100 times KD (80–150 μM).
Where [7] appears, read: competitive FP using WT FITC-labeled ZNF622 as probe, Figure 5D, read-out: KD' (moesin FERM, ZNF622 peptide variants).
The mark [8] stands for this setting: competitive FP using FITC-KIRREL3_637–652 as probe, Figure 4G, read-out: KD' (moesin FERM, KIRREL3 and TBX4 peptide variants).

T1 sequence (P26038 2-295 limits assumed): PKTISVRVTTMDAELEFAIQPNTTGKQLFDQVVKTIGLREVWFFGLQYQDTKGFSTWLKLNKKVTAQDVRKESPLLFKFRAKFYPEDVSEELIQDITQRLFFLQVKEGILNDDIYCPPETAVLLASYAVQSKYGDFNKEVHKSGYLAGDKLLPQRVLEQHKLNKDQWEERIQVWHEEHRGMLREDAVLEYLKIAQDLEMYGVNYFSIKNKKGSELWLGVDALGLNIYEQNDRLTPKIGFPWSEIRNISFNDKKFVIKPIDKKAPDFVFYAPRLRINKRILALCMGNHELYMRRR
T2 sequence (P26038 2-295 M285A/H288A limits assumed): as the sequence (P26038 2-295 limits assumed) above, with M284A, H287A counted along it
T3 sequence (P35241 5-295): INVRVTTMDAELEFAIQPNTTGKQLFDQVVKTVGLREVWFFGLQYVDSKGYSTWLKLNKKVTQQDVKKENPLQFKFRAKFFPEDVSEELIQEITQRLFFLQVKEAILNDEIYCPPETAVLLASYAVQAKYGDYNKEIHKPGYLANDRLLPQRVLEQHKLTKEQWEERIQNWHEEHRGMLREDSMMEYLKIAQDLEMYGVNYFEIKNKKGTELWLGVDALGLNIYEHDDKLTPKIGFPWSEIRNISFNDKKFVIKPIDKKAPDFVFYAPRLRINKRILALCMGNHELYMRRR

For “APQMDWSKKNELFSNL [EBP50_343–358, reference compound]”, the Kd – broadly, the equilibrium constant for the complex coming apart – on moesin FERM domain [1] was 3000 ± 300 nM; on moesin FERM domain [2] (setting [4]), 3300 ± 200 nM; on moesin FERM domain [2] (setting [5]), 3400 ± 200 nM. Take FYELAHQLPLPHNVSS [HIF1A37–52]: the dissociation constant Kd at moesin FERM domain [3] (competition FP, determined using FITC-ZNF622 as the probe peptide (footnote b), read-out: moesin KD′) came to 3000 ± 400 nM.

Take ITGSYSVSESPFFSPI [MISP595–610]: the Kd at moesin FERM domain [3] (read-out: moesin KD′) amounted to 2300 ± 100 nM. “KIRREL3_634–652: unlabeled F3b ligand used at 80 μM as saturating competitor; residue range as printed (TNGYYSVNTFKEHHSTPTI)”: in the test with moesin FERM domain [2] (setting [6]), the “effect of excess unlabeled peptide on binding of FITC-EBP50 / FITC-ZNF622 to the F3a site” value is on record as “not binding” and the “effect of excess unlabeled peptide on binding of FITC-KIRREL3 / FITC-TBX4 to the F3b site” value was “blocked binding”.

Take LEAADFYDFRSSYPDH: on moesin FERM domain [3] (setting [7]), the Kd stood at 2300 ± 100 nM. The same measure, in the same setting: then LEFADAYDFRSSYPDH, with 85000 ± 2000 nM; and LEFADFYAFRSSYPDH, with 50000 ± 2000 nM. Consider LEFADFYDFRSSAPDH, for which the dissociation constant (Kd) at moesin FERM domain [3] (setting [7]) was 2800 ± 100 nM. Turning to LEFADFYDFRSSYPDH [ZNF622_341–356], the Kd was 1000 ± 100 nM at moesin FERM domain [1]; 1400 ± 100 nM at moesin FERM domain [3] (setting [7]); 1300 ± 100 nM on moesin FERM M285A/H288A; 1400 ± 100 nM at moesin FERM domain [2] (setting [4]); 1300 ± 200 nM on moesin FERM domain [2] (setting [5]). Take LYTLPDDSTHQLLQPH [BOC1000–1015]: the Kd on radixin FERM domain turned out to be 17 ± 2 µM. Turning to SYSVQTMETVPYQPFP [TBX4_428–443], the “KD, merlin FERM domain” value at merlin FERM domain is “N.B”. Besides, the Kd at moesin FERM domain [3] (setting [8]) came out at 1000 ± 100 nM. With “THHKALQEIRNSLLPF [LATS1_73–88, reference compound]”, the Kd on moesin FERM domain [1] amounted to 1000 ± 100 nM; at moesin FERM M285A/H288A it was 1300 ± 100 nM. With TNGAYSVNTFKEHHST, on moesin FERM domain [3] (setting [8]), the Kd was determined as 110 ± 10 nM. Turning to TNGYASVNTFKEHHST, the Kd on moesin FERM domain [3] (setting [8]) came out at 58000 ± 5000 nM. On the same count and under the same terms, then TNGYYSANTFKEHHST, with 50000 ± 6000 nM; and TNGYYSVNTFKEHHST, with 100 ± 10 nM. Regarding YYSVNTFKEHHSTPTI [KIRREL3_637–652], the “KD, merlin FERM domain” value at merlin FERM domain is reported as “N.B”.

These data come from PMC10249358, “Elucidation of Short Linear Motif-Based Interactions of the FERM Domains of Ezrin, Radixin, Moesin, and Merlin” (Biochemistry, 2023).
